# Assay results taken from patent publication EP2805705B1, “Packaging with one or more administration units comprising a sodium salt of (R)-3-[6-amino-pyridin-3-yl]-2-(1-cyclohexyl-1 H-imidazol-4-yl)-propionic acid” (IP Gesellschaft für Management mbH, priority 2013, dated 2014).
# Experiments:
# Type in all cases: physicochemical
# [1] = Dynamic vapor sorption (DVS), DVS-1 instrument, two cycles at 25 °C; conditions: for weight increase in the sorption step: 25 °C
# [2] = Determination of solubility in a mixture of acetone and water (4:1, by volume); conditions: acetone and water (4:1, by volume)
# Experimental: Determination of solubility: For the determination of the solubility in a mixture of acetone and water (4:1, by volume), samples of 0.5 mg to 50 mg of the test substances were suspended in a defined amount of the solvent (800 mg to 1200 mg) in screw cap vials with a magnetic stirring bar, which were placed in a temperature-controlled multiple stirring device equipped for transmission measurement (Avantium Crystal 16). With stirring at 700 rpm, the vials were cooled from room temperature to 0 °C and then heated to 60 °C with a heating rate of 3 °C/h, kept at 60 °C for 2 h and cooled again to 0 °C with a cooling rate of 3 °C/h. By means of transmission measurement it was determined whether the sample was dissolved (100 % transmission), or crystals were present. For polymorph 1 ({drug5b}), polymorph 2 ({drug5c}), hydrate 1 ({drug5e}) and hydrate 2 ({drug5f}) of compound (V) the following solubilities in a mixture of acetone and water (4:1, by volume) were determined.
# [3] = Maturation experiments (slurry conversion), relative stability; conditions: among polymorphs 1, 2 and hydrate 1, suspensions kept five days at 20 °C, then dried at 40°C and <100 mbar
# Experimental: Maturation experiments: By maturation experiments (slurry conversion) at 20 °C the relative stability of polymorphs 1 ({drug5b}) and 2 ({drug5c}) and hydrate 1 ({drug5e}) was investigated. A polymorph mixture of 81 mg (Mixture of Polymorph 1 ({drug5b}) and Polymorph 2 ({drug5c})), 83 mg of Polymorph 1 ({drug5b}) and 60 mg of hydrate 1 ({drug5e}) was prepared. The mixture was subjected to XRPD analysis to confirm the presence of all three polymorphs and then distributed into five capillaries. These samples were kept in suspension at 20°C for five days. After X-ray powder diffraction measurement of the suspensions these were dried over night at 40°C and <100mbar and again subjected to X-ray diffraction. Maturation experiments (a) to (e) were performed under the specified conditions, starting with the polymorph mixture described above. (a) The polymorph mixture was suspended in water. After stirring the suspension for five days at 20 °C, the suspension was analyzed via XRPD and a mixture of polymorph 1 ({drug5b}) and hydrate 1 ({drug5e}) was proven. […] (b) The polymorph mixture was suspended in water/methanol 1:1 (vol.: vol.). […] (c) The polymorph mixture was suspended in 2-propanol. […] (d) The polymorph mixture was suspended in acetone. […] (e) The polymorph mixture was suspended in ethylacetate. […]
# [4] = Solubility in water (statement, no method given); conditions: result in words
# [5] = Physical stability on storage for 14 days (XRPD, thermogravimetry); conditions: stored 14 days under conditions (A), (B), (C) and (D)
# Experimental: Example 3: Physical stability: Representative samples of the crystalline salt of (R)-3-(6-amino-pyridin-3-yl)-2-(1-cyclohexyl-1 H-imidazol-4-yl)-propionic acid ethyl ester with naphthalene-1,5-disulfonic acid as in Example 1 are produced and are stored for 14 days under the conditions (A), (B), (C) and (D): (A) 50°C; (B) 50°C and 80% relative humidity; (C) 80°C; (D) 80°C and 80% relative humidity.
# [6] = Chiral stability on storage for 14 days (chiral HPLC)
# Experimental: Example 4: Chiral stability: Representative samples of the crystalline salt of (R)-3-(6-amino-pyridin-3-yl)-2-(1-cyclohexyl-1 H-imidazol-4-yl)-propionic acid ethyl ester with naphthalene-1,5disulfonic acid were prepared as described in example 1 amd stored for 14 days under described conditions (A), (B), (C) and (D): Results:
# The enantiomeric purity of the sample measured at the beginning of measurement was 99.0%. Under the storage conditions 50°C (A) and 50°C and 80% relative humidity (B) a small increase of 0.2% of the (S)-enantiomers was observed. Under storage conditions 80°C (C), no change can be observed. Under the storage condition 80°C and 80% relative humidity (D) an increase of 2.7% of (S)-enantiomers was are observed. The measurements were made as described in Example 1 by chromatography on a chiral phase, Chiral HPLC (Chiralcel OD-H/84 (250x4.6 mm), heptane: isopropanol: acetonitrile 15:1: 0.5 +0.1% diethylamine (DEA), 30°C, 1 ml / min): Rt = 27.01 min.
smiles,measurement,setting,value
"CNc1nccc(-c2cc3cc(C(=O)N[C@@H](CN(c4ccccc4)c4ncccn4)C(N)=O)ccc3[nH]2)n1 [Polymorph 1, 2-(2-methylamino-pyrimidin-4-yl)-1 H-indole-5-carboxylic acid [(S)-1-carbamoyl-2-(phenyl-pyrimidin-2-yl-amino)-ethyl]-amide]",weight increase in the sorption step,"[1]; Relative humidity 40 %, first cycle",0.5 % / 0.5%
same,weight increase in the sorption step,"[1]; Relative humidity 40 %, second cycle",0.5 % / 0.5%
same,weight increase in the sorption step,"[1]; Relative humidity 60 %, first cycle",0.6 % / 0.6%
same,weight increase in the sorption step,"[1]; Relative humidity 60 %, second cycle",0.6 % / 0.6%
same,weight increase in the sorption step,"[1]; Relative humidity 80 %, first cycle",0.9 % / 0.9%
same,weight increase in the sorption step,"[1]; Relative humidity 80 %, second cycle",0.9 % / 0.9%
same,weight increase in the sorption step,"[1]; Relative humidity 95 %, first cycle",1.3%
same,weight increase in the sorption step,"[1]; Relative humidity 95 %, second cycle",1.4%
same,water uptake (hygroscopicity),[1]; at a high relative humidity of 80 %,about 0.9%
same,Solubility [g in 100 g of solvent],[2]; Temperature 36.9 °C,0.43 g in 100 g of solvent
same,Solubility [g in 100 g of solvent],[2]; Temperature 44.7 °C,0.50 g in 100 g of solvent
same,Solubility [g in 100 g of solvent],[2]; Temperature 60.0 °C,0.85 g in 100 g of solvent
same,relative thermodynamic stability,[3],thermodynamically most stable polymorph
same,relative thermodynamic stability,[3]; listed as polymorph 1,thermodynamically most stable
same,solubility in water,[4],low solubility in water
"CCOC(=O)[C@H](Cc1ccc(N)nc1)c1cn(C2CCCCC2)cn1.O=S(=O)(O)c1cccc2c(S(=O)(=O)O)cccc12 [naphthalene-1,5-disulfonic acid salt of (R)-3-(6-amino-pyridin-3-yl)-2-(1-cyclohexyl-1 H-imidazol-4-yl)-propionic acid-ethylester]",XRPD measurements at the beginning and after 14 days,[5],close to each other
same,enantiomeric purity,[6]; at the beginning of measurement,99.0%
same,increase of (S)-enantiomers,"[6]; storage condition 80°C and 80% relative humidity (D), 14 days",2.7%
same,enantiomeric purity,"[6]; storage condition (A) 50°C, 14 days",98.8%
same,enantiomeric purity,"[6]; storage condition (B) 50°C and 80% relative humidity, 14 days",98.8%
same,enantiomeric purity,"[6]; storage condition (C) 80°C, 14 days",99.0%
same,enantiomeric purity,"[6]; storage condition (D) 80°C and 80% relative humidity, 14 days",96.3%
same,increase of the (S)-enantiomers,"[6]; storage conditions 50°C (A) and 50°C and 80% relative humidity (B), 14 days",0.2%
same,change of enantiomeric purity,"[6]; storage conditions 80°C (C), 14 days",no change
